Test results from ChEMBL document CHEMBL1201861, “Genomics of Drug Sensitity in Cancer screening data, Wellcome Trust Sanger Institute”.

Tests used:
D-247MG = assay: cells; assay type: functional, cell-based; details: Homo sapiens
Description: SANGER: Inhibition of human D-247MG cell growth in a cell viability assay.

EB-3 = assay: cells; assay type: functional, cell-based; details: Homo sapiens
Description: SANGER: Inhibition of human EB-3 cell growth in a cell viability assay.

EB2 = assay: cells; assay type: functional, cell-based; details: Homo sapiens
Description: SANGER: Inhibition of human EB2 cell growth in a cell viability assay.

IST-SL2 = assay: cells; assay type: functional, cell-based; details: Homo sapiens
Description: SANGER: Inhibition of human IST-SL2 cell growth in a cell viability assay.

K052 = assay: cells; assay type: functional, cell-based; details: Homo sapiens
Description: SANGER: Inhibition of human K052 cell growth in a cell viability assay.

Kasumi 1 = assay: cells; assay type: functional, cell-based; details: Homo sapiens
Description: SANGER: Inhibition of human KASUMI-1 cell growth in a cell viability assay.

LC4-1 = assay: cells; assay type: functional, cell-based; details: Homo sapiens
Description: SANGER: Inhibition of human LC4-1 cell growth in a cell viability assay.

NCI-H1882 = assay: cells; assay type: functional, cell-based; details: Homo sapiens
Description: SANGER: Inhibition of human NCI-H1882 cell growth in a cell viability assay.

NCI-H748 = assay: cells; assay type: functional, cell-based; details: Homo sapiens
Description: SANGER: Inhibition of human NCI-H748 cell growth in a cell viability assay.

RPMI-6666 = assay: cells; assay type: functional, cell-based; details: Homo sapiens
Description: SANGER: Inhibition of human RPMI-6666 cell growth in a cell viability assay.

ST486 = assay: SANGER: Inhibition of human ST486 cell growth in a cell viability assay.; assay type: functional, cell-based
TALL-1 = assay: cells; assay type: functional, cell-based; details: Homo sapiens
Description: SANGER: Inhibition of human TALL-1 cell growth in a cell viability assay.

BC-3 = assay: cells; assay type: functional, cell-based; details: Homo sapiens
Description: SANGER: Inhibition of human BC-3 cell growth in a cell viability assay.

TGW = assay: cells; assay type: functional, cell-based; details: Homo sapiens
Description: SANGER: Inhibition of human TGW cell growth in a cell viability assay.

THP-1 = assay: cells; assay type: functional, cell-based; details: Homo sapiens
Description: SANGER: Inhibition of human THP-1 cell growth in a cell viability assay.

CMK = assay: cells; assay type: functional, cell-based; details: Homo sapiens
Description: SANGER: Inhibition of human CMK cell growth in a cell viability assay.

COR-L23 = assay: cells; assay type: functional, cell-based; details: Homo sapiens
Description: SANGER: Inhibition of human COR-L23 cell growth in a cell viability assay.

CP50-MEL-B = assay: cells; assay type: functional, cell-based; details: Homo sapiens
Description: SANGER: Inhibition of human CP50-MEL-B cell growth in a cell viability assay.

Ca-Ski = assay: cells; assay type: functional, cell-based; details: Homo sapiens
Description: SANGER: Inhibition of human Ca-Ski cell growth in a cell viability assay.

CaR-1 = assay: cells; assay type: functional, cell-based; details: Homo sapiens
Description: SANGER: Inhibition of human CaR-1 cell growth in a cell viability assay.

DOK = assay: cells; assay type: functional, cell-based; details: Homo sapiens
Description: SANGER: Inhibition of human DOK cell growth in a cell viability assay.

FaDu = assay: cells; assay type: functional, cell-based; details: Homo sapiens
Description: SANGER: Inhibition of human FADU cell growth in a cell viability assay.

GCT = assay: cells; assay type: functional, cell-based; details: Homo sapiens
Description: SANGER: Inhibition of human GCT cell growth in a cell viability assay.

KYSE-520 cell line = assay: cells; assay type: functional, cell-based; details: Homo sapiens
Description: SANGER: Inhibition of human KYSE-520 cell growth in a cell viability assay.

KYSE-70 cell line = assay: cells; assay type: functional, cell-based; details: Homo sapiens
Description: SANGER: Inhibition of human KYSE-70 cell growth in a cell viability assay.

LK-2 = assay: cells; assay type: functional, cell-based; details: Homo sapiens
Description: SANGER: Inhibition of human LK-2 cell growth in a cell viability assay.

MCF7 = assay: cells; assay type: functional, cell-based; details: Homo sapiens
Description: SANGER: Inhibition of human MCF7 cell growth in a cell viability assay.

MDA-MB-157 = assay: cells; assay type: functional, cell-based; details: Homo sapiens
Description: SANGER: Inhibition of human MDA-MB-157 cell growth in a cell viability assay.

MDA-MB-175-VII = assay: cells; assay type: functional, cell-based; details: Homo sapiens
MDA-MB-361 = assay: cells; assay type: functional, cell-based; details: Homo sapiens
MEL-JUSO = assay: cells; assay type: functional, cell-based; details: Homo sapiens
Description: SANGER: Inhibition of human MEL-JUSO cell growth in a cell viability assay.

MIA PaCa-2 = assay: cells; assay type: functional, cell-based; details: Homo sapiens
Description: SANGER: Inhibition of human MIA-PaCa-2 cell growth in a cell viability assay.

NCI-H1793 = assay: cells; assay type: functional, cell-based; details: Homo sapiens
Description: SANGER: Inhibition of human NCI-H1793 cell growth in a cell viability assay.

NCI-H2030 = assay: cells; assay type: functional, cell-based; details: Homo sapiens
Description: SANGER: Inhibition of human NCI-H2030 cell growth in a cell viability assay.

NCI-H2052 = assay: cells; assay type: functional, cell-based; details: Homo sapiens
Description: SANGER: Inhibition of human NCI-H2052 cell growth in a cell viability assay.

NCI-H2122 = assay: cells; assay type: functional, cell-based; details: Homo sapiens
Description: SANGER: Inhibition of human NCI-H2122 cell growth in a cell viability assay.

NCI-N87 = assay: cells; assay type: functional, cell-based; details: Homo sapiens
Description: SANGER: Inhibition of human NCI-N87 cell growth in a cell viability assay.

NUGC-3 = assay: cells; assay type: functional, cell-based; details: Homo sapiens
Description: SANGER: Inhibition of human NUGC-3 cell growth in a cell viability assay.

OAW-42 = assay: cells; assay type: functional, cell-based; details: Homo sapiens
Description: SANGER: Inhibition of human OAW-42 cell growth in a cell viability assay.

OVCAR-5 = assay: cells; assay type: functional, cell-based; details: Homo sapiens
Description: SANGER: Inhibition of human OVCAR-5 cell growth in a cell viability assay.

PA-1 = assay: cells; assay type: functional, cell-based; details: Homo sapiens
Description: SANGER: Inhibition of human PA-1 cell growth in a cell viability assay.

PANC-03-27 = assay: cells; assay type: functional, cell-based; details: Homo sapiens
Description: SANGER: Inhibition of human PANC-03-27 cell growth in a cell viability assay.

RD = assay: cells; assay type: functional, cell-based; details: Homo sapiens
Description: SANGER: Inhibition of human RD cell growth in a cell viability assay.

RERF-LC-MS = assay: cells; assay type: functional, cell-based; details: Homo sapiens
Description: SANGER: Inhibition of human RERF-LC-MS cell growth in a cell viability assay.

RPMI-2650 = assay: cells; assay type: functional, cell-based; details: Homo sapiens
Description: SANGER: Inhibition of human RPMI-2650 cell growth in a cell viability assay.

SF-295 = assay: cells; assay type: functional, cell-based; details: Homo sapiens
Description: SANGER: Inhibition of human SF295 cell growth in a cell viability assay.

SK-MEL-24 = assay: cells; assay type: functional, cell-based; details: Homo sapiens
Description: SANGER: Inhibition of human SK-MEL-24 cell growth in a cell viability assay.

SK-MEL-28 = assay: cells; assay type: functional, cell-based; details: Homo sapiens
Description: SANGER: Inhibition of human SK-MEL-28 cell growth in a cell viability assay.

SKG-IIIa = assay: cells; assay type: functional, cell-based; details: Homo sapiens
Description: SANGER: Inhibition of human SKG-IIIa cell growth in a cell viability assay.

SW1710 = assay: cells; assay type: functional, cell-based; details: Homo sapiens
Description: SANGER: Inhibition of human SW1710 cell growth in a cell viability assay.

SW-620 = assay: cells; assay type: functional, cell-based; details: Homo sapiens
Description: SANGER: Inhibition of human SW620 cell growth in a cell viability assay.

SW626 = assay: cells; assay type: functional, cell-based; details: Homo sapiens
Description: SANGER: Inhibition of human SW626 cell growth in a cell viability assay.

T84 = assay: cells; assay type: functional, cell-based; details: Homo sapiens
Description: SANGER: Inhibition of human T84 cell growth in a cell viability assay.

CWR22R = assay: cells; assay type: functional, cell-based; details: Homo sapiens, 22Rv1
Description: SANGER: Inhibition of human 22RV1 cell growth in a cell viability assay.

5637 = assay: cells; assay type: functional, cell-based; details: Homo sapiens
Description: SANGER: Inhibition of human 5637 cell growth in a cell viability assay.

769-P = assay: cells; assay type: functional, cell-based; details: Homo sapiens
Description: SANGER: Inhibition of human 769-P cell growth in a cell viability assay.

8305C = assay: cells; assay type: functional, cell-based; details: Homo sapiens
Description: SANGER: Inhibition of human 8305C cell growth in a cell viability assay.

8505C = assay: cells; assay type: functional, cell-based; details: Homo sapiens
Description: SANGER: Inhibition of human 8505C cell growth in a cell viability assay.

A-375 = assay: cells; assay type: functional, cell-based; details: Homo sapiens
Description: SANGER: Inhibition of human A375 cell growth in a cell viability assay.

BPH-1 = assay: cells; assay type: functional, cell-based; details: Homo sapiens
Description: SANGER: Inhibition of human BPH-1 cell growth in a cell viability assay.

BXPC-3 = assay: cells; assay type: functional, cell-based; details: Homo sapiens
Description: SANGER: Inhibition of human BxPC-3 cell growth in a cell viability assay.

C32 = assay: cells; assay type: functional, cell-based; details: Homo sapiens
Description: SANGER: Inhibition of human C32 cell growth in a cell viability assay.

CAKI-1 = assay: cells; assay type: functional, cell-based; details: Homo sapiens
Description: SANGER: Inhibition of human CAKI-1 cell growth in a cell viability assay.

CAL-12T = assay: cells; assay type: functional, cell-based, Homo sapiens; details: Homo sapiens, CAL-12T
Description: SANGER: Inhibition of human CAL-12T cell growth in a cell viability assay.

UMC-11 = assay: cells; assay type: functional, cell-based; details: Homo sapiens
Description: SANGER: Inhibition of human UMC-11 cell growth in a cell viability assay.

## Cc1nc(Nc2ncc(C(=O)Nc3c(C)cccc3Cl)s2)cc(N2CCN(CCO)CC2)n1 [DASATINIB]
D-247MG
  IC50: > 1.28 µM
EB-3
  IC50: > 1.28 µM
EB2
  IC50: > 1.28 µM
IST-SL2
  IC50: 0.503 µM
K052
  IC50: > 1.28 µM
Kasumi 1
  IC50: > 1.28 µM
LC4-1
  IC50: > 1.28 µM
NCI-H1882
  IC50: > 1.28 µM
NCI-H748
  IC50: > 1.28 µM
RPMI-6666
  IC50: > 1.28 µM
ST486
  IC50: > 1.28 µM
TALL-1
  IC50: > 1.28 µM
BC-3
  IC50: > 1.28 µM
TGW
  IC50: > 1.28 µM
THP-1
  IC50: > 1.28 µM
CMK
  IC50: > 1.28 µM

## Fc1cc(-c2cc[nH]/c(=N/c3ccc(-n4cnc(N5CCOCC5)n4)cc3)n2)cc(N2CCOCC2)c1
COR-L23
  IC50: 1 µM
CP50-MEL-B
  IC50: 0.722 µM
Ca-Ski
  IC50: 0.532 µM
CaR-1
  IC50: 1.88 µM
D-247MG
  IC50: 4.67 µM
DOK
  IC50: 0.858 µM
EB-3
  IC50: 1.83 µM
EB2
  IC50: 0.581 µM
FaDu
  IC50: 0.715 µM
GCT
  IC50: 0.204 µM
IST-SL2
  IC50: 0.457 µM
K052
  IC50: 0.508 µM
Kasumi 1
  IC50: 0.34 µM
KYSE-520 cell line
  IC50: 0.448 µM
KYSE-70 cell line
  IC50: 0.627 µM
LC4-1
  IC50: 0.431 µM
LK-2
  IC50: 0.849 µM
MCF7
  IC50: 0.389 µM
MDA-MB-157
  IC50: 0.457 µM
MDA-MB-175-VII
  IC50: 2.96 µM
MDA-MB-361
  IC50: 1.07 µM
MEL-JUSO
  IC50: 0.286 µM
MIA PaCa-2
  IC50: 1.4 µM
NCI-H1793
  IC50: 1.21 µM
NCI-H1882
  IC50: 1.08 µM
NCI-H2030
  IC50: 0.169 µM
NCI-H2052
  IC50: 1.65 µM
NCI-H2122
  IC50: 0.238 µM
NCI-H748
  IC50: 1.08 µM
NCI-N87
  IC50: > 5.12 µM
NUGC-3
  IC50: 0.687 µM
OAW-42
  IC50: 0.877 µM
OVCAR-5
  IC50: 0.181 µM
PA-1
  IC50: 0.102 µM
PANC-03-27
  IC50: 0.271 µM
RD
  IC50: 1.3 µM
RERF-LC-MS
  IC50: 0.874 µM
RPMI-2650
  IC50: 0.224 µM
RPMI-6666
  IC50: 0.296 µM
SF-295
  IC50: 0.555 µM
SK-MEL-24
  IC50: > 5.12 µM
SK-MEL-28
  IC50: > 5.12 µM
SKG-IIIa
  IC50: 4.89 µM
ST486
  IC50: 0.19 µM
SW1710
  IC50: 0.232 µM
SW-620
  IC50: 0.355 µM
SW626
  IC50: 1.09 µM
T84
  IC50: 1.52 µM
TALL-1
  IC50: > 5.12 µM
CWR22R
  IC50: 1.01 µM
5637
  IC50: 5.04 µM
769-P
  IC50: 0.535 µM
8305C
  IC50: 0.397 µM
8505C
  IC50: 1.26 µM
A-375
  IC50: 0.623 µM
BC-3
  IC50: 0.598 µM
BPH-1
  IC50: 1.97 µM
BXPC-3
  IC50: 0.351 µM
C32
  IC50: > 5.12 µM
CAKI-1
  IC50: 0.334 µM
CAL-12T
  IC50: 2.11 µM
TGW
  IC50: 3.47 µM
THP-1
  IC50: 1.05 µM
UMC-11
  IC50: 0.179 µM
CMK
  IC50: 0.545 µM

## Cc1n[nH]c2ccc(-c3cncc(OC[C@@H](N)Cc4c[nH]c5ccccc45)c3)cc12 [A-443654]
D-247MG
  IC50: 0.974 µM
EB-3
  IC50: 0.334 µM
EB2
  IC50: > 1.02 µM
IST-SL2
  IC50: 0.194 µM
K052
  IC50: > 1.02 µM
Kasumi 1
  IC50: > 1.02 µM
LC4-1
  IC50: 0.217 µM
NCI-H1882
  IC50: 0.428 µM
NCI-H748
  IC50: 0.508 µM
RPMI-6666
  IC50: 0.152 µM
ST486
  IC50: 0.204 µM
TALL-1
  IC50: 0.242 µM
BC-3
  IC50: 0.342 µM
TGW
  IC50: 0.569 µM
THP-1
  IC50: > 1.02 µM
CMK
  IC50: 0.275 µM
